Where two headings read alike, the source gives them in different places.

One series relates to Aspergillus niger. Description: Bacterial contamination of gelatinized starch (gyuhi). As to conditions: 25° C., open conditions. How it is done:
The mixture was mixed with a mixer and further mixed to homogeneity with two parts by weight of a starch hydrolyzate, shaped, and roughly dried for two hours, while blowing 40° C. hot air to the contents, to obtain “gyuhi” (a rice paste with sugar).

Series [1] is described as follows: Dehydration and pulverization of plain yogurt by non-reducing saccharide. Further details: unit not given here. How it is done: The anhydrous crystalline cyclotetrasaccharide; crystalline cyclotetrasaccharide, monohydrate; and anhydrous amorphous cyclotetrasaccharide were respectively prepared by the methods in Examples A-1, A-2, and A-3. As the crystalline α,α-trehalose, dihydrate, a commercially available “TREHA®” commercialized by Hayashibara Shoji Inc., Okayama, Japan, was used. The anhydrous crystalline α,α-trehalose and the anhydrous amorphous α,α-trehalose used in this experiment were prepared from a commercialized crystalline α,α-trehalose, dihydrate, using the methods disclosed in Examples for Reference 1 and 3 in Japanese Patent Kokai No. 170,221/94. To four parts by weight of a plain yogurt with a moisture content of about 77% was added either of the above saccharides in an amount of 11 to 16 parts by weight. The resultant mixtures were respectively placed in vats, allowed to stand at 25° C. for 24 hours, and macroscopically observed their change on standing. The judgement was conducted in such a manner of sufficiently dehydrating the resulting mixtures to be solidified, subjected to a pulverizer for pulverization, and evaluated as “◯”, when the solids were easily pulverized; “Δ”, when the dehydration of the resulting mixtures was rather insufficient and the pulverization of solids was substantially difficult, though the resulting mixtures were solidified; and “x”, when the dehydration of the resulting mixtures was insufficient and could not be pulverized by a pulverizer.

The nature of series [2]: Dehydrating action: moisture absorption on standing at controlled relative humidity. The format is physicochemical. As to conditions: for moisture content (%) by the Karl Fisher method: 25° C. An excerpt:
Anhydrous crystalline cyclotetrasaccharide; crystalline cyclotetrasaccharide, monohydrate; anhydrous amorphous cyclotetrasaccharide; and crystalline cyclotetrasaccharide, penta- or hexa-hydrate were experimented in detail on their dehydrating actions, particularly, moisture absorption abilities against saccharides and changes on standing. As a control, anhydrous crystalline α,α-trehalose, anhydrous amorphous α,α-trehalose, and crystalline α,α-trehalose, dihydrate, were used as saccharides. The experiments were as follows: […]

Series [3] relates to α-isomaltosylglucosaccharide-forming enzyme. As to the kind of experiment: Influence of metal ions on α-isomaltosylglucosaccharide-forming enzyme activity (C11 strain). In kind it is biochemical, Bacillus globisporus C11 strain. As to conditions: in the presence of 1 mM metal salt; None = 100. How it is done: The activities of these enzymes were assayed as follows: The activity of α-isomaltosylglucosaccharide-forming enzyme was assayed by dissolving maltotriose in 100 mM acetate buffer (pH 6.0) to give a concentration of 2% (w/v) for a substrate solution, adding 0.5 ml of an enzyme solution to 0.5 ml of the substrate solution, enzymatically reacting the mixture solution at 35° C. for 60 min, boiling the reaction mixture for 10 min to suspend the enzymatic reaction, and quantifying maltose, among the isomaltosyl maltose and maltose formed in the reaction mixture, on HPLC as described in Experiment 1. One unit activity of the α-isomaltosylglucosaccharide-forming enzyme was defined as the enzyme amount that forms one micromole of maltose per minute under the above enzymatic reaction conditions.
The influence of metal ions on the activity of α-isomaltosylglucosaccharide-forming enzyme was examined in the presence of 1 mM of any of metal salts according to the assay for the enzyme activity.

Setting [4] is: relative humidity 75%, 3 days after treatment.
The mark [5] stands for this setting: relative humidity 75%, 0 days after treatment.
The mark [6] stands for this setting: relative humidity 75%, 1 day after treatment.
The mark [7] stands for this setting: relative humidity 75%, 2 days after treatment.
The mark [8] stands for this setting: relative humidity 75%, 7 days after treatment.

Turning to “crystalline cyclotetrasaccharide, penta- or hexa-hydrate [Saccharide D]”, the “colonies of Aspergillus niger found in gyuhi, days on standing” value in the series with Aspergillus niger (gyuhi with six parts by weight of saccharide) stood at 15 days.

As for `OC[C@H]1O[C@H](O[C@H]2O[C@H](CO)[C@@H](O)[C@H](O)[C@H]2O)[C@H](O)[C@@H](O)[C@@H]1O` [Saccharide E, anhydrous crystalline α,α-trehalose, reference compound], the “Water content (before use)” value in series [1] (listed as E) is listed as 0.3. Also, the “moisture content (%) by the Karl Fisher method” value (“moisture content (%)” below) came to 0.3% in series [2] (relative humidity 75%, 0 days after treatment, listed as E); 9.7% in series [2] (relative humidity 75%, 1 day after treatment, listed as E); 9.6% in series [2] (relative humidity 75%, 2 days after treatment, listed as E); 9.8% in series [2] (setting [4]); 9.8% in series [2] (relative humidity 75%, 7 days after treatment, listed as E).

Take “crystalline cyclotetrasaccharide, monohydrate [Saccharide B]”: in series [1], the “Water content (before use)” value is given as 2.7. Also, the “moisture content (%)” value is 2.7% in series [2] (relative humidity 60%, 0 days after treatment); 2.7% in series [2] (relative humidity 60%, 1 day after treatment); 2.8% in series [2] (relative humidity 60%, 2 days after treatment); 2.8% in series [2] (relative humidity 60%, 3 days after treatment); 2.9% in series [2] (relative humidity 60%, 7 days after treatment); 2.7% in series [2] (setting [5]). In addition, the “moisture content (%)” value in series [2] (setting [6]) worked out at 14.0%; in series [2] (setting [7]), 14.0%; in series [2] (setting [4]), 14.1%; in series [2] (setting [8]), 14.1%. In series [2] (relative humidity of 75%), the “moisture absorption level, % of its weight” value (from here on “moisture absorption level, %”) is “about 14%”.

For the compound `OC[C@H]1O[C@@H]2OC[C@H]3O[C@H](O[C@@H]4[C@@H](O)[C@@H](OC[C@H]5O[C@H](O[C@H]([C@H]2O)[C@@H]1O)[C@H](O)[C@@H](O)[C@@H]5O)O[C@H](CO)[C@H]4O)[C@H](O)[C@@H](O)[C@@H]3O` [Saccharide A, anhydrous crystalline cyclotetrasaccharide], the “Water content (before use)” value in series [1] (listed as A) was 0.2. The “bacterial contamination in gyuhi” value in the series on Aspergillus niger (at 30 days on standing) is on record as “found no bacterial contamination”. In addition, the “moisture content (%)” value in series [2] (relative humidity 60%, 0 days after treatment, listed as A) is given as 0.2%; in series [2] (relative humidity 60%, 1 day after treatment, listed as A), 10.2%; in series [2] (relative humidity 60%, 2 days after treatment, listed as A), 10.3%; in series [2] (relative humidity 60%, 3 days after treatment, listed as A) it was 10.3%; in series [2] (relative humidity 60%, 7 days after treatment, listed as A), 10.4%; in series [2] (relative humidity 75%, 0 days after treatment, listed as A) it was 0.2%. In addition, the “moisture content (%)” value in series [2] (relative humidity 75%, 1 day after treatment, listed as A) is on record as 13.9%; in series [2] (relative humidity 75%, 2 days after treatment, listed as A), 14.4%; in series [2] (relative humidity 75%, 3 days after treatment, listed as A), 14.4%; in series [2] (relative humidity 75%, 7 days after treatment, listed as A), 14.3%. The “moisture absorption level, %” value in series [2] (relative humidity of 60%, listed as anhydrous crystalline cyclotetrasaccharide) was “about 10%”; in series [2] (relative humidity of 75%), “about 14%”.

Turning to `OC[C@H]1O[C@@H]2OC[C@H]3O[C@H](O[C@@H]4[C@@H](O)[C@@H](OC[C@H]5O[C@H](O[C@H]([C@H]2O)[C@@H]1O)[C@H](O)[C@@H](O)[C@@H]5O)O[C@H](CO)[C@H]4O)[C@H](O)[C@@H](O)[C@@H]3O` [Saccharide C, anhydrous amorphous cyclotetrasaccharide], the “Water content (before use)” value in series [1] (listed as C) amounted to 0.3. The “moisture content (%)” value in series [2] (relative humidity 60%, 0 days after treatment, listed as C) was found to be 0.3%; in series [2] (relative humidity 60%, 1 day after treatment, listed as C), 13.7%; in series [2] (relative humidity 60%, 2 days after treatment, listed as C), 13.8%; in series [2] (relative humidity 60%, 3 days after treatment, listed as C), 13.9%; in series [2] (relative humidity 60%, 7 days after treatment, listed as C) it was 14.1%; in series [2] (relative humidity 75%, 0 days after treatment, listed as C) it was 0.3%. Also, the “moisture content (%)” value came out at 14.2% in series [2] (relative humidity 75%, 1 day after treatment, listed as C); 13.6% in series [2] (relative humidity 75%, 2 days after treatment, listed as C); 13.7% in series [2] (relative humidity 75%, 3 days after treatment, listed as C); 13.7% in series [2] (relative humidity 75%, 7 days after treatment, listed as C). Also, the “moisture absorption level, %” value in series [2] (relative humidity of 60%, listed as anhydrous amorphous cyclotetrasaccharide) was “about 14%”.

Turning to `OC[C@H]1O[C@H](O[C@H]2O[C@H](CO)[C@@H](O)[C@H](O)[C@H]2O)[C@H](O)[C@@H](O)[C@@H]1O` [Saccharide F, anhydrous amorphous α,α-trehalose, reference compound], the “Water content (before use)” value in series [1] (listed as F) is 0.8. Also, the “moisture content (%)” value in series [2] (relative humidity 75%, 0 days after treatment, listed as F) worked out at 0.8%; in series [2] (relative humidity 75%, 1 day after treatment, listed as F) it was 9.8%; in series [2] (relative humidity 75%, 2 days after treatment, listed as F) it was 9.7%; in series [2] (relative humidity 75%, 7 days after treatment, listed as F), 9.7%.

For `[Al+3]` [Al^3+], in series [3], the “Relative activity (%)” value is on record as 100%.

In the case of `[Fe+2]` [Fe^2+], the “Relative activity (%)” value in series [3] is recorded as 100%.

Consider `O.O.OC[C@H]1O[C@H](O[C@H]2O[C@H](CO)[C@@H](O)[C@H](O)[C@H]2O)[C@H](O)[C@@H](O)[C@@H]1O` [Saccharide G, crystalline α,α-trehalose, dihydrate, reference compound], for which the “Water content (before use)” value in series [1] was 9.7. For the same compound, the “moisture content (%)” value in series [2] (setting [5]) was 9.7%; in series [2] (setting [6]), 9.7%; in series [2] (setting [7]), 9.7%; in series [2] (setting [4]), 9.8%; in series [2] (setting [8]), 9.8%.

The record behind these values is US7186701B2, “Dehydrating agent and method for dehydrating moist article using the agent and dehydrated article obtained by the method” (Kabushiki Kaisha Hayashibara Seibutsu Kagaku Kenkyujo, priority 2001, dated 2007).
